{"source": "patent US8883798B2", "about": "“Pyrimidine compounds inhibiting the formation of nitric oxide and prostaglandin E2, method of production thereof and use thereof” (Ustav Organicke Chemie a Biochemie Akademie Ved CR, V.V.I., priority 2011, dated 2014)", "key": {"[1]": {"test_system": "production of nitric oxide (NO)", "assay": "Production of nitric oxide (NO) in cultures of mouse peritoneal cells stimulated with IFN-γ plus LPS (Griess reagent)", "assay_type": "cell-based, mice", "conditions": "Table 3A; substance 50 μmol·l^−1; IFN-g plus LPS; 24 h", "outline": "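C57BL/6 mouse peritoneal cells (2×10^6/mL) stimulated with IFN-γ (5000 pg/mL) plus LPS (100 pg/mL), compounds at 50 μmol·l^−1. Nitrite measured by Griess reagent after 24 h, expressed as % of stimulated control (set 100%); IC50 is concentration reducing NO by 50%.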"}, "[2]": {"test_system": "human peripheral blood lymphocytes", "assay": "Chromosomal aberration test in vitro", "assay_type": "cell-based", "conditions": "0.1, 0.2 and 0.5 mg/ml; with and without metabolic activation", "description": "The clastogenicity potential of compound no. 28 was determined using chromosomal aberration test in vitro. The test was carried out in human peripheral blood lymphocytes both with and without metabolic activation system in two separate assays.\nThree concentrations were selected for the test: 0.1, 0.2 and 0.5 mg/ml of final culture. Cells were arrested at metaphase by colchicine, harvested and slides were stained. Metaphase cells were analyzed microscopically for the presence of chromosomal aberrations. A total of 200 well-spread metaphases were examined per concentration on coded slides. Concurrent positive (thiotepa, cyclophosphamide) and negative (2% DMSO) controls were included in each experiment. […]."}, "[3]": {"test_system": "production of prostaglandin E2 (PGE2)", "assay": "Production of prostaglandin E2 (PGE2) in cultures of mouse peritoneal cells stimulated with LPS (ELISA kit)", "assay_type": "cell-based, mice", "conditions": "Table 3A, substance 50 μmol·l^−1, 6 h", "outline": "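C57BL/6 mouse peritoneal cells (3×10^6/mL) stimulated with LPS (10 ng/mL). PGE2 measured by ELISA.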"}, "chronic colitis in mice": {"test_system": "chronic colitis in mice", "assay": "Chronic murine colitis induced by dextran sulfate sodium", "assay_type": "in vivo, mice (Balb/c)", "conditions": "10 mg/kg orally, daily for 15 days", "description": "Chronic colitis was induced in mice (Balb/c) by dextran sulfate sodium (DSS), used as a 3% solution in drinking water. DSS treatment was applied intermittently on the three 5-day intervals, separated by the 9-day intervals (i.e. between the DSS cycles 1/2 and 2/3) during which the mice drunk normal water.\nThe test compounds were given orally, suspended in 0.5% methylcellulose. The dose was 10 mg/kg. The daily dosing started immediately after the second DSS interval and lasted to the end of the 3rd DSS interval, i.e. for the duration of 15 days. At this point, the animals were sacrificed and clinical signs of colitis were examined. Except of continuous monitoring the body weight, the following parameters were evaluated: a) colon length, b) disease activity index, and c) histological grade. Three compounds were included in this experiment: nos. 19, 51, and 28. 5-Aminosalycilic acid was used as a positive reference drug. The effects were compared to the group of mice receiving placebo (0.5% methylcellulose)."}, "[4]": {"conditions": "rat, in vivo, po, 800 mg/kg", "method": "(§1) 28. The plasma samples were taken in intervals during 48 hours. […] Plasma samples were prepared by centrifugation (3500 rpm, 10 min, 4° C.), transferred into appropriately labelled and sealed Eppendorf tubes and frozen at −20° C. until transportation to analyses. The plasma was split into two aliquots. All samples were transported in a sufficient amount of dry ice to the analytical laboratory.\n(§2) The analysis was performed using HPLC/MS/MS method with the use of internal deuterated standard and precipitation separation method. The analytical method used 50 μl of plasma sample for each analysis. The method was validated for concentration as low as 10.0 ng of the compound in 1 ml of plasma. A weighted liner regression was evaluated over the concentration range from 10.0-10 000.0 ng of the compound in 1 ml of plasma. Spiked plasma samples were precipitated with the solution of internal standard. The sample supernatant was analyzed on HPL/MS/MS system TSQ-03."}, "[5]": {"assay": "Pilot toxic-kinetic study, single per-oral administration", "conditions": "female Wistar rats; single per-oral dose 800 mg/kg; plasma", "method": "as §1, §2"}, "[6]": {"test_system": "adjuvant arthritis in sewer rats", "assay": "Adjuvant arthritis in female Lewis sewer rats (Freund's complete adjuvant)", "assay_type": "in vivo, sewer rats of the inbred strain Lewis", "conditions": "50 mg/kg orally, Day 9 to Day 16; versus methylcellulose group"}, "HUVEC": {"test_system": "HUVEC", "assay": "HUVEC cell proliferation (XTT assay)", "assay_type": "cell-based, human", "conditions": "10 to 50 μmol/L, 8 hours"}, "[7]": {"test_system": "human umbilical vein endothelial cells (HUVEC)", "assay": "Tube formation assay of HUVEC on Matrigel (in vitro angiogenesis)", "assay_type": "cell-based", "conditions": "8 h", "source_text": "This so called “Tube Formation Assay” is a method based on the ability of endothelial cells to form capillary-like tubular structures when cultured on Matrigel™ (a gel of basement membrane extract—their natural substrate). The process of capillary-like tube formation includes endothelial cell attachment, migration, and differentiation into tubules. In this experiment, treatment with tested compounds started at the time of seeding HUVEC onto Matrigel and the extent of tubule development was observed after an 8 h time period. Disruption of tube formation was then assessed through observation of the tubular network and direct comparison to solvent-only controls. The quantitative and qualitative measurement of tubular network complexity was performed using web-based S.CORE imaging software and expressed by means of number of tubes, their total length, quality, number of branching points, etc. All these parameters were integrated into “tube formation index” which corresponds to the degree of complexity of tubular network. […] At a 10 μmol/L concentration, compound 23 reduced tube formation by >90%. […] Apoptosis in HUVECs (at ˜70% confluency) treated with or without varying concentrations (relevant for the tube formation assay) of tested substances was assessed by a combination of Annexin V and JC-1 staining. After 8 h of these treatments, cells were collected, and the cell population undergoing apoptosis was identified by double-parameter flow cytometry using annexin V and the vital dye propidium iodide (PI). Mitochondrial membrane potential in treated endothelial cells was measured using the lypophilic probe JC-1, which aggregates in healthy mitochondria and fluoresces red, but diffuses in the cytoplasm and fluoresces green upon mitochondrial damage. In both cases, quantification of apoptotic cells were conducted in BD FACSDiva software."}}, "data": [{"smiles": "CCCCc1c(Cl)nc(N)nc1Cl", "note": "[Substance 28]", "values": [{"measurement": "Production of nitric oxide in % of the controls", "setting": "[1]", "result": "53.23 ± 5.79 % of the controls"}, {"measurement": "Numerical and structural chromosome aberrations (clastogenicity)", "setting": "[2]", "result": "did not induce an increase in numerical and structural chromosome aberrations"}, {"measurement": "Production of prostaglandins in % of the controls", "setting": "[3]", "result": "13.14 ± 0.13 % of the controls"}, {"measurement": "Clinical signs of chronic experimental colitis", "setting": "chronic colitis in mice", "result": "significantly lowers the clinical signs of chronic experimental colitis"}, {"measurement": "Colon length (inflammation in the gut)", "setting": "chronic colitis in mice", "result": "protection against the shortening of colon"}, {"measurement": "Effectiveness compared with 5-aminosalycilic acid", "setting": "chronic colitis in mice", "result": "slightly more effective than the reference drug"}, {"measurement": "Overall disease activity index", "setting": "chronic colitis in mice", "result": "lower than in the placebo group"}, {"measurement": "Toxic effect in animals", "setting": "[4]", "result": "No apparent toxic effect was observed"}, {"measurement": "Cmax = maximum concentration", "setting": "[5]", "result": 337.2, "unit": "ng/mL"}, {"measurement": "Terminal elimination rate half-life", "setting": "[5]", "result": 15.9, "unit": "h"}]}, {"smiles": "CCCCc1c(Cl)nc(NC=O)nc1Cl", "note": "[Substance 51]", "values": [{"measurement": "Severity of adjuvant arthritis (size of contralateral paws)", "setting": "[6]", "result": "distinctive (statistically significant) reduction of the severity of the illness"}, {"measurement": "Production of nitric oxide in % of the controls", "setting": "[1]", "result": "8.37 ± 2.77 % of the controls"}, {"measurement": "Production of prostaglandins in % of the controls", "setting": "[3]", "result": "5.22 ± 2.66 % of the controls"}, {"measurement": "HUVEC cell proliferation", "setting": "HUVEC", "result": "did not influence HUVEC cell proliferation"}, {"measurement": "Effect on tube formation", "setting": "[7]; 10 μmol/L", "result": "only limited effect"}, {"measurement": "Incomplete tube formation", "setting": "[7]; 25 μmol/L", "result": "~6", "unit": "%"}, {"measurement": "Capillary tube formation", "setting": "[7]", "result": "inhibited capillary tube formation in a dose dependent manner"}]}]}
